Reference: US20060252807A1, “Novel ortho-terphenyl inhibitors of p38 kinase and methods of treating inflammatory disorders” (Kalypsys, Inc., priority 2005, published 2006)

Target: T1, active p38 alpha enzyme (Upstate Biotechnology) (Homo sapiens, UniProt Q16539)
T1 construct: purchased Upstate Biotechnology
Assay: p38α biochemical assay (ATP turnover, luminescent detection, Cambrex PKlight)
Conditions: p38α biochemical assay, Table 1 Biological Activity
Method: The p38α biochemical assay employed is based on measurement of total ATP turnover following enzyme incubation with substrate in the presence of ATP with the use of a luminescent detection reagent (Cambrex PKlight). The assays were performed in 1536-well white opaque plates.
The final volume was 7.5005 μL as prepared prepared from the addition of 5 ul of kinase reaction (p38 alpah+MapkapK2+ATP) with 0.0005 μL compound dissolved in DMSO, and 2.5 ul of the detection reagent. Assay buffer contains the following reagents to give final concentration in the assay: 200 mM Tris, 100 mM MgCl2, 1.5 mM EGTA, 4 mM CaCl2, 20 mM MOPS, 1 mM EDTA, 1% glycerol, 0.1% B-Mecaptoethanol, and 1 mg/ml BSA. Test compounds are pinned using proprietary pintool technology (Kalypsys, Inc) and delivered as […] amounts into the 5 ul mixture of active p38 alpha enzyme (Upstate Biotechnology) and MapkapK2 (Upstate Biotechnology) whole protein as a substrate for phosphorylation in the presence of 1.4 uM final concentration ATP. Reactions are incubated at 30C for 2 hours and detection reagent is added in 2.5 ul/well amounts. Assay is read using a Perkin Elmer Viewlux.

T1 sequence (Q16539 whole entry): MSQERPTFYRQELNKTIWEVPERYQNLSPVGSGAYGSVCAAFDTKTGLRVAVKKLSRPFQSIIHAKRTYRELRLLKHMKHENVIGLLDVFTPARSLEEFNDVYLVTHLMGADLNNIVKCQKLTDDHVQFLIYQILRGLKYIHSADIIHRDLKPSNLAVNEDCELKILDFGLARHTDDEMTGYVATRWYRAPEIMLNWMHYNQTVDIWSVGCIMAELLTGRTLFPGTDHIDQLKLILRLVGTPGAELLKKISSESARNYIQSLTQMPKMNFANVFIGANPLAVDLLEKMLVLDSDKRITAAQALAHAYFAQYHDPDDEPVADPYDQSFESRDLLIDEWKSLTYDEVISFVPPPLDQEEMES

SMILES	IC50 [nM]
Cc1onc(-c2ccc(Cl)cc2)c1-c1ccn(C(=O)NC(CO)CO)n1 [Example 14, 3-|3-(4-Chloro-phenyl)-5-methyl-isoxazol-4-yl|-pyrazole-1-carboxylic acid (2-hydroxy-1-hydroxymethyl-ethyl)-amide]	> 1000
Cc1onc(-c2ccc(Cl)cc2)c1-c1ccn(C(=O)NCC(C)C)n1 [Example 15, 3-|3-(4-Chloro-phenyl)-5-methyl-isoxazol-4-yl|-pyrazole-1-carboxylic acid isobutyl-amide]	≤ 1000
Cc1onc(-c2ccc(Cl)cc2)c1-c1cc(C)n(C(=O)NC(C)C)n1 [Example 16, 3-|3-(4-Chloro-phenyl)-5-methyl-isoxazol-4-yl|-5-methyl-pyrazole-1-carboxylic acid isopropylamide]	≤ 1000
Cc1onc(-c2cccc(C(F)(F)F)c2)c1-c1ccn(C(=O)NC(C)C)n1 [Example 19, 3-|5-Methyl-3-(3-trifluoromethyl-phenyl)-isoxazol-4-yl|-pyrazole-1-carboxylic acid isopropylamide]	> 1000
Cc1onc(-c2ccc(Cl)cc2)c1-c1ccn(C(=O)CC(C)C)n1 [Example 20, 1-{3-|3-(4-Chloro-phenyl)-5-methyl-isoxazol-4-yl|-pyrazol-1-yl}-3-methyl-butan-1-one]	> 1000
Cc1onc(-c2ccc(F)cc2Cl)c1-c1ccn(C(=O)NC(C)C)n1 [Example 21, 3-|3-(2-Chloro-4-fluoro-phenyl)-5-methyl-isoxazol-4-yl|-pyrazole-1-carboxylic acid isopropylamide]	≤ 1000
COCc1onc(-c2ccc(Cl)cc2)c1-c1ccn(C(=O)NC(C)C)n1 [Example 22, 3-|3-(4-Chloro-phenyl)-5-methoxymethyl-isoxazol-4-yl|-pyrazole-1-carboxylic acid isopropylamide]	≤ 1000
Cc1onc(-c2ccc(F)c(Cl)c2)c1-c1ccn(C(=O)NC(C)C)n1 [Example 23, 3-|3-(3-Chloro-4-fluoro-phenyl)-5-methyl-isoxazol-4-yl|-pyrazole-1-carboxylic acid isopropylamide]	≤ 1000
Cc1cc(Cl)ccc1-c1noc(C)c1-c1ccn(C(=O)NC(C)C)n1 [Example 24, 3-|3-(4-Chloro-2-methyl-phenyl)-5-methyl-isoxazol-4-yl|-pyrazole-1-carboxylic acid isopropylamide]	> 1000
CC(C)NC(=O)n1ccc(-c2c(-c3ccc(F)cc3)noc2CN(C)C)n1 [Example 25, 3-|5-Dimethylaminomethyl-3-(4-fluoro-phenyl)-isoxazol-4-yl|-pyrazole-1-carboxylic acid isopropylamide]	≤ 1000
CC(C)NC(=O)c1csc(-c2c(-c3ccc(F)cc3)noc2CN2CCNCC2)n1 [Example 28, 2-|3-(4-Fluoro-phenyl)-5-piperazin-1-ylmethyl-isoxazol-4-yl|-thiazole-4-carboxylic acid isopropylamide]	≤ 1000
CC(C)NC(=O)c1csc(-c2c(-c3ccc(F)cc3)noc2CN(C)C)n1 [Example 29, 2-|5-Dimethylaminomethyl-3-(4-fluoro-phenyl)-isoxazol-4-yl|-thiazole-4-carboxylic acid isopropylamide]	≤ 1000
CC(C)NC(=O)c1csc(-c2c(-c3ccc(F)cc3)noc2CN2CCCCC2)n1 [Example 30, 2-|3-(4-Fluoro-phenyl)-5-piperidin-1-ylmethyl-isoxazol-4-yl|-thiazole-4-carboxylic acid isopropylamide]	> 1000
CCOC(=O)N1CCC(NCc2onc(-c3ccc(F)cc3)c2-c2nc(C(=O)NC(C)C)cs2)CC1 [Example 31]	> 1000
CC(C)NC(=O)c1csc(-c2c(-c3ccc(F)cc3)noc2CNCCO)n1 [Example 32, 2-{3-(4-Fluoro-phenyl)-5-|(2-hydroxy-ethylamino)-methyl|-isoxazol-4-yl}-thiazole-4-carboxylic acid isopropylamide]	> 1000
COCCNCc1onc(-c2ccc(F)cc2)c1-c1nc(C(=O)NC(C)C)cs1 [Example 33, 2-{3-(4-Fluoro-phenyl)-5-|(2-methoxy-ethylamino)-methyl|-isoxazol-4-yl}-thiazole-4-carboxylic acid isopropylamide]	> 1000
Cc1onc(-c2ccc(F)cc2)c1-c1csc(C(=O)NC(C)C)n1 [Example 34]	≤ 1000
CC(C)NC(=O)c1csc(-c2c(-c3ccc(F)cc3)noc2C2CCN(C(=O)CO)CC2)n1 [Example 36, 2-{3-(4-Fluoro-phenyl)-5-|1-(2-hydroxy-acetyl)-piperidin-4-yl|-isoxazol-4-yl}-thiazole-4-carboxylic acid isopropylamide]	≤ 1000

SMILES	IC50 [nM]
CC(C)NC(=O)c1coc(-c2c(-c3ccc(F)cc3)noc2C2CCNCC2)n1 [Example 37, 2-|3-(4-Fluoro-phenyl)-5-piperidin-4-yl-isoxazol-4-yl|-oxazole-4-carboxylic acid isopropylamide]	≤ 1000
Cc1nc(-c2ccc(F)cc2)c(-c2nc(C(N)=O)cs2)o1 [Example 39, 2-|4-(4-Fluoro-phenyl)-2-methyl-oxazol-5-yl|-thiazole-4-carboxylic acid amide]	> 1000
CC(C)NC(=O)c1csc(-c2oc(CN(C)C)nc2-c2ccc(F)cc2)n1 [Example 42, 2-|2-Dimethylaminomethyl-4-(4-fluoro-phenyl)-oxazol-5-yl|-thiazole-4-carboxylic acid isopropylamide]	≤ 1000
CC(C)NC(=O)c1csc(-c2oc(CNC(=O)OC(C)(C)C)nc2-c2ccc(F)cc2)n1 [Example 43, |4-(4-Fluoro-phenyl)-5-(4-isopropylcarbamoyl-thiazol-2-yl)-oxazol-2-ylmethyl|-carbamic acid tert-butyl ester]	> 1000
CNC(=O)c1csc(-c2sc(C)nc2-c2ccc(F)cc2)n1 [Example 47, 4′-(4-Fluoro-phenyl)-2′-methyl-|2,5′|bithiazolyl-4-carboxylic acid methylamide]	≤ 1000
CCNC(=O)c1csc(-c2sc(C)nc2-c2ccc(F)cc2)n1 [Example 48, 4′-(4-Fluoro-phenyl)-2′-methyl-|2,5′|bithiazolyl-4-carboxylic acid ethylamide]	≤ 1000
Cc1nc(-c2ccc(F)cc2)c(-c2nc(C(=O)NCCO)cs2)s1 [Example 49, 4′-(4-Fluoro-phenyl)-2′-methyl-|2,5′|bithiazolyl-4-carboxylic acid (2-hydroxy-ethyl)-amide]	≤ 1000
Cc1nc(-c2ccc(F)cc2)c(-c2nc(C(=O)NC3CCC3)cs2)s1 [Example 50, 4′-(4-Fluoro-phenyl)-2′-methyl-|2,5′|bithiazolyl-4-carboxylic acid cyclobutylamide]	≤ 1000
Cc1nc(-c2ccc(F)cc2)c(-c2nc(C(=O)NCC3CC3)cs2)s1 [Example 51, 4′-(4-Fluoro-phenyl)-2′-methyl-|2,5′|bithiazolyl-4-carboxylic acid cyclopropylmethyl-amide]	≤ 1000
Cc1nc(-c2ccc(F)cc2)c(-c2nc(C(=O)NCCCO)cs2)s1 [Example 52, 4′-(4-Fluoro-phenyl)-2′-methyl-|2,5′|bithiazolyl-4-carboxylic acid (3-hydroxy-propyl)-amide]	≤ 1000
COCCNC(=O)c1csc(-c2sc(C)nc2-c2ccc(F)cc2)n1 [Example 53, 4′-(4-Fluoro-phenyl)-2′-methyl-|2,5′|bithiazolyl-4-carboxylic acid (2-methoxy-ethyl)-amide]	≤ 1000
CCC(CO)NC(=O)c1csc(-c2sc(C)nc2-c2ccc(F)cc2)n1 (stereo not drawn) [Example 54, 4′-(4-Fluoro-phenyl)-2′-methyl-|2,5′|bithiazolyl-4-carboxylic acid (1-hydroxymethyl-propyl)-amide]	≤ 1000
Cc1nc(-c2ccc(F)cc2)c(-c2nc(C(=O)NCc3cccnc3)cs2)s1 [Example 55, 4′-(4-Fluoro-phenyl)-2′-methyl-|2,5′|bithiazolyl-4-carboxylic acid (pyridin-3-ylmethyl)-amide]	≤ 1000
Cc1nc(-c2ccc(F)cc2)c(-c2nc(C(=O)NCc3ccccn3)cs2)s1 [Example 56, 4′-(4-Fluoro-phenyl)-2′-methyl-|2,5′|bithiazolyl-4-carboxylic acid (pyridin-2-ylmethyl)-amide]	≤ 1000
Cc1nc(-c2ccc(F)cc2)c(-c2nc(C(=O)NCc3ccncc3)cs2)s1 [Example 57, 4′-(4-Fluoro-phenyl)-2′-methyl-|2,5′|bithiazolyl-4-carboxylic acid (pyridin-4-ylmethyl)-amide]	≤ 1000
Cc1nc(-c2ccc(F)cc2)c(-c2nc(C(=O)NCCCN3CCOCC3)cs2)s1 [Example 58, 4′-(4-Fluoro-phenyl)-2′-methyl-|2,5′|bithiazolyl-4-carboxylic acid (3-morpholin-4-yl-propyl)-amide]	> 1000
Cc1nc(-c2ccc(F)cc2)c(-c2nc(C(=O)NCc3ccc4c(c3)OCO4)cs2)s1 [Example 59, 4′-(4-Fluoro-phenyl)-2′-methyl-|2,5′|bithiazolyl-4-carboxylic acid (benzo|1,3|dioxol-5-ylmethyl)-amide]	≤ 1000
COc1ccc(CNC(=O)c2csc(-c3sc(C)nc3-c3ccc(F)cc3)n2)cc1OC [Example 60, 4′-(4-Fluoro-phenyl)-2′-methyl-|2,5′|bithiazolyl-4-carboxylic acid 3,4-dimethoxy-benzylamide]	> 1000
